Source: patent US11505573B2, “Peptide macrocycles against Acinetobacter baumannii” (Hoffmann-La Roche Inc., priority 2018, dated 2022)

System: A. baumannii ATCC 17978
Assay: Antimicrobial susceptibility testing: 50% growth inhibitory concentration (IC50) determination in Iso-Sensitest broth
Assay type: cell-based
Details: Acinetobacter baumannii; A. baumannii strain ATCC17978; Iso-Sensitest medium; OD 600 nm over 16 h; 35±2° C.; read-out: IC50 ATCC17978 (50% growth inhibition concentration)
Protocol: Antimicrobial Susceptibility Testing: 50% Growth Inhibitory Concentration (IC50) Determination The in vitro antimicrobial activity of the compounds was alternatively determined according to the following procedure: The assay used a 10-points Iso-Sensitest broth medium to measure quantitatively the in vitro activity of the compounds against A. baumannii ATCC 17978. Stock compounds in DMSO were serially twofold diluted (e.g. range from 10 to 0.02 μM final concentration) in 384 wells microtiter plates and inoculated with 49 μl the bacterial suspension in Iso-Sensitest medium to have a final cell concentration of ˜5×10^(5) CFU/ml in a final volume/well of […] Microtiter plates were incubated at 35±2° C. Bacterial cell growth was determined by the measurement of optical density at λ=600 nm each 20 minutes over a time course of 16 h. Growth inhibition was calculated during the logarithmic growth of the bacterial cells by determination of the concentration inhibiting 50% (IC50) and 90% (IC90) of the growth. Table 1 provides the 50% growth inhibitory concentrations (IC50) in micromoles per liter of the compounds of present invention obtained against the A. baumannnii strain ATCC17978.

Structure (SMILES) | IC50 [nM]
CN1C(=O)[C@H](CCCCN)NC(=O)[C@H](CCCN)NCc2cccnc2Sc2cccc(-c3ccc(-c4nnn[nH]4)cc3)c2CNC(=O)[C@@H]1Cc1c[nH]c2ccccc12 [Example 5.00, (11S,14S,17S)-14-(4-Aminobutyl)-1-(3-aminopropyl)-17-(1H-indol-3-ylmethyl)-16-methyl-22-[4-(1H-tetrazol-5-yl)phenyl]-2-thia-4,10,13,16,19-pentazatricyclo[19.4.0.03,8]pentacosa-1(25), 3(8),4,6,21,23-hexaene-12,15,18-trione] | 20
CN1C(=O)[C@H](CCCN)NC(=O)[C@H](CCCN)NCc2cccnc2Sc2c(Cl)ccc(-c3cnc(=O)[nH]c3)c2CNC(=O)[C@@H]1Cc1c[nH]c2ccccc12 [Example 8.02, (11S,14S,17S)-11,14-bis(3-aminopropyl)-25-chloro-17-(1H-indol-3-ylmethyl)-16-methyl-22-(2-oxo-1H-pyrimidin-5-yl)-2-thia-4,10,13,16,19-pentazatricyclo[19.4.0.03,8]pentacosa-1(21),3,5,7,22,24-hexaene-12,15,18-trione] | 80
Cc1ccc(-c2ccc(-c3nnn[nH]3)cc2)c2c1Sc1ncccc1CN[C@@H](CCCN)C(=O)N[C@@H](CCCCN)C(=O)N(C)[C@@H](Cc1c[nH]c3ccccc13)C(=O)NC2 [Example 11.01, (11S,14S,17S)-14-(4-Aminobutyl)-11-(3-aminopropyl)-17-(1H-indol-3-ylmethyl)-16,25-dimethyl-22-[4-(1H-tetrazol-5-yl)phenyl]-2-thia-4,10,13,16,19-pentazatricyclo[19.4.0.03,8]pentacosa-1(25), 3(8),4,6,21,23-hexaene-12,15,18-trione] | 20
CC(=O)NS(=O)(=O)c1ccc(-c2ccc(Cl)c3c2CNC(=O)[C@H](Cc2c[nH]c4ccccc24)N(C)C(=O)[C@H](CCCCN)NC(=O)[C@H](CCCN)NCc2cccnc2S3)cc1 [Example 1.04, N-[4-[(11S,14S,17S)-14-(4-aminobutyl)-11-(3-aminopropyl)-25-chloro-17-(1H-indol-3-ylmethyl)-16-methyl-12,15,18-trioxo-2-thia-4,10,13,16,19-pentazatricyclo[19.4.0.03,8]pentacosa-1(21),3,5,7,22,24-hexaen-22-yl]phenyl]sulfonylacetamide] | 20
CN1C(=O)[C@H](CCCCN)NC(=O)[C@H](CCCN)NCc2cccnc2Sc2c(Cl)ccc(-c3ccn(Cc4nnn[nH]4)c(=O)c3)c2CNC(=O)[C@@H]1Cc1c[nH]c2ccccc12 [Example 2.00, (11S,14S,17S)-14-(4-Aminobutyl)-11-(3-aminopropyl)-25-chloro-17-(1H-indol-3-ylmethyl)-16-methyl-22-[2-oxo-1-(1H-tetrazol-5-ylmethyl)-4-pyridyl]-2-thia-4,10,13,16,19-pentazatricyclo[19.4.0.03,8]pentacosa-1(25), 3(8),4,6,21,23-hexaene-12,15,18-trione] | 80
CN1C(=O)[C@H](CCCCN)NC(=O)[C@H](CCCN)NCc2cccnc2Sc2c(F)ccc(-c3ccc(C(=O)NS(C)(=O)=O)cc3)c2CNC(=O)[C@@H]1Cc1c[nH]c2ccccc12 [Example 7.03, 4-[(11S,14S,17S)-14-(4-aminobutyl)-11-(3-aminopropyl)-25-fluoro-17-(1H-indol-3-ylmethyl)-16-methyl-12,15,18-trioxo-2-thia-4,10,13,16,19-pentazatricyclo[19.4.0.03,8]pentacosa-1(25),3(8),4,6,21,23-hexaen-22-yl]-N-methylsulfonyl-benzamide] | 40
CN1C(=O)[C@H](CCCN)NC(=O)[C@H](CCCN)NCc2cccnc2Sc2c(F)ccc(-c3ccc(-c4nnn[nH]4)cc3)c2CNC(=O)[C@@H]1Cc1c[nH]c2ccccc12 [Example 9.01, (11S,14S,17S)-11,14-Bis(3-aminopropyl)-25-fluoro-17-(1H-indol-3-ylmethyl)-16-methyl-22-[4-(1H-tetrazol-5-yl)phenyl]-2-thia-4,10,13,16,19-pentazatricyclo[19.4.0.03,8]pentacosa-1(25), 3(8),4,6,21,23-hexaene-12,15,18-trione] | 20
CN1C(=O)[C@H](CCCCN)NC(=O)[C@H](CCCO)NCc2cccnc2Sc2c(Cl)ccc(-c3cnc(O)nc3)c2CNC(=O)[C@@H]1Cc1c[nH]c2ccccc12 [Example 16.01, (11S,14S,17S)-14-(4-Aminobutyl)-25-chloro-11-(3-hydroxypropyl)-22-(2-hydroxypyrimidin-5-yl)-17-(1H-indol-3-ylmethyl)-16-methyl-2-thia-4,10,13,16,19-pentazatricyclo[19.4.0.03,8]pentacosa-1(21),3,5,7,22,24-hexaene-12,15,18-trione] | 1840
C[C@@H]1NCc2cccnc2Sc2c(Cl)ccc(-c3ccc(S(=O)(=O)O)cc3)c2CNC(=O)[C@H](Cc2c[nH]c3ccccc23)N(C)C(=O)[C@H](CCCN)NC1=O [Example 14.00, 4-[(11S,14S,17S)-14-(3-Aminopropyl)-25-chloro-17-(1H-indol-3-ylmethyl)-11,16-dimethyl-12,15,18-trioxo-2-thia-4,10,13,16,19-pentazatricyclo[19.4.0.03,8]pentacosa-1(25), 3(8),4,6,21,23-hexaen-22-yl]benzenesulfonic acid] | 720
CC(=O)NS(=O)(=O)c1ccc(-c2ccc(Cl)c3c2CNC(=O)[C@H](Cc2c[nH]c4ccccc24)N(C)C(=O)[C@H](CCCCN)NC(=O)[C@H](CCCNCCC(=O)O)NCc2cccnc2S3)cc1 [Example 20.00, 3-[3-[(11S,14S,17S)-22-[4-(Acetylsulfamoyl)phenyl]-14-(4-aminobutyl)-25-chloro-17-(H-indol-3-ylmethyl)-16-methyl-12,15,18-trioxo-2-thia-4,10,13,16,19-pentazatricyclo[19.4.0.03,8]pentacosa-1(21),3,5,7,22,24-hexaen-11-yl]propylamino]propanoic acid] | 520
CN1C(=O)[C@H](CCCCN)NC(=O)[C@H](CCCN)NCc2cccnc2Sc2c(Cl)cc(-c3cn[nH]n3)cc2CNC(=O)[C@@H]1Cc1c[nH]c2ccccc12 [Example 22.00, (11S,14S,17S)-14-(4-Aminobutyl)-1-(3-aminopropyl)-25-chloro-17-(1H-indol-3-ylmethyl)-16-methyl-23-(1H-triazol-5-yl)-2-thia-4,10,13,16,19-pentazatricyclo[19.4.0.03,8]pentacosa-1(21),3,5,7,22,24-hexaene-12,15,18-trione] | 180
CN1C(=O)[C@H](CCCCN)NC(=O)[C@H](CCCN)NCc2nccnc2Sc2c(Cl)ccc(-c3ccc(S(=O)(=O)O)cc3)c2CNC(=O)[C@@H]1Cc1c[nH]c2ccccc12 [Example 6.00, 4-[(11S,14S,17S)-14-(4-Aminobutyl)-1-(3-aminopropyl)-25-chloro-17-(1H-indol-3-ylmethyl)-16-methyl-12,15,18-trioxo-2-thia-4,7,10,13,16,19-hexazatricyclo[19.4.0.03,8]pentacosa-1(25), 3(8),4,6,21,23-hexaen-22-yl]benzenesulfonic acid] | 20
CN1C(=O)[C@H](CCCCN)NC(=O)[C@H](CCCN)NCc2cccnc2Sc2c(F)ccc(-c3ccc(-c4nnn[nH]4)cc3)c2CNC(=O)[C@@H]1Cc1c[nH]c2ccccc12 [Example 7.01, (11S,14S,17S)-14-(4-aminobutyl)-11-(3-aminopropyl)-25-fluoro-17-(1H-indol-3-ylmethyl)-16-methyl-22-[4-(1H-tetrazol-5-yl)phenyl]-2-thia-4,10,13,16,19-pentazatricyclo[19.4.0.03,8]pentacosa-1(25),3(8),4,6,21,23-hexaene-12,15,18-trione] | 20
CN1C(=O)[C@H](CCCCN)NC(=O)[C@H](CCCN)NCc2cccnc2Sc2c(Cl)ccc(-c3cccc(-c4nnn[nH]4)c3)c2CNC(=O)[C@@H]1Cc1c[nH]c2ccccc12 [Example 1.03, (11S,14S,17S)-14-(4-aminobutyl)-11-(3-aminopropyl)-25-chloro-17-(1H-indol-3-ylmethyl)-16-methyl-22-[3-(1H-tetrazol-5-yl)phenyl]-2-thia-4,10,13,16,19-pentazatricyclo[19.4.0.03,8]pentacosa-1(25),3,5,7,21,23-hexaene-12,15,18-trione] | 360
CN1C(=O)[C@H](CCCCN)NC(=O)[C@H](CCCN)NCc2cccnc2Sc2c(Cl)ccc(-c3ccc(-c4nnn[nH]4)cc3)c2CNC(=O)[C@@H]1Cc1c[nH]c2ccccc12 [Example 1.02, (11S,14S,17S)-14-(4-aminobutyl)-11-(3-aminopropyl)-25-chloro-17-(1H-indol-3-ylmethyl)-16-methyl-22-[4-(1H-tetrazol-5-yl)phenyl]-2-thia-4,10,13,16,19-pentazatricyclo[19.4.0.03,8]pentacosa-1(25),3,5,7,21,23-hexaene-12,15,18-trione] | 100
CN1C(=O)[C@H](CCCCN)NC(=O)[C@H](CCCN)NCc2cccnc2Sc2c(Cl)ccc(-c3cnc(=O)[nH]c3)c2CNC(=O)[C@@H]1Cc1c[nH]c2ccccc12 [Example 1.05, (11S,14S,17S)-14-(4-aminobutyl)-11-(3-aminopropyl)-25-chloro-17-(1H-indol-3-ylmethyl)-16-methyl-22-(2-oxo-1H-pyrimidin-5-yl)-2-thia-4,10,13,16,19-pentazatricyclo[19.4.0.03,8]pentacosa-1(25),3,5,7,21,23-hexaene-12,15,18-trione] | 20
